Laboratory results taken from US8192962B2, “Processes for detecting toxic substances” (Daikin Industries, Ltd., priority 2001, dated 2012).

Tested on: Transport facilitation protein genes
Experiment: DNA chip mRNA expression in yeast, transport facilitation protein genes (Table 5)
Assay type: cell-based, Saccharomyces cerevisiae S288C
Outline: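 In this screen, yeast in logarithmic growth are challenged for two hours with a toxic substance at a non-lethal inhibitory concentration. Their mRNA, converted to Cy3- or Cy5-labeled cDNA, hybridizes at 65° C. to a chip spanning every yeast gene, and expression is expressed as a ratio to untreated cells.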

Measured: The level of expressed mRNA in the presence of chemical substance/The level of expressed mRNA in the absence of chemical substance

C=CC=O [(14), acrolein]
0.8: yeast gene YHL035C | yeast gene YJL212C | yeast gene YOR328W
1.6: yeast gene YHR092C | yeast gene YKL016C
1.1: yeast gene YHL040C | yeast gene YJL219W | yeast gene YOR332W | yeast gene YPL265W
1.4: yeast gene YKL221W | yeast gene YLR092W | yeast gene YNL259C | yeast gene YPL134C | yeast gene YPL224C
0.5: yeast gene YHL047C | yeast gene YOR273C
0.9: yeast gene YJR106W | yeast gene YNL055C | yeast gene YOL156W | yeast gene YOR035C
2.4: yeast gene YOL119C
0.4: yeast gene YLR378C | yeast gene YPR124W
1.3: yeast gene YHR026W | yeast gene YKR067W | yeast gene YOR130C | yeast gene YPL271W
1.0: yeast gene YIL006W | yeast gene YIL056W | yeast gene YKL146W | yeast gene YLR081W | yeast gene YLR348C | yeast gene YMR162C | yeast gene YNR072W | yeast gene YOR316C | yeast gene YPR194C
0.7: yeast gene YHR175W | yeast gene YJR077C | yeast gene YJR121W | yeast gene YLL028W | yeast gene YMR203W | yeast gene YOR270C | yeast gene YPR192W
0.3: yeast gene YOR153W
1.2: yeast gene YIL088C | yeast gene YKR039W | yeast gene YLR295C | yeast gene YOL163W | yeast gene YOR348C
0.6: yeast gene YHR094C | yeast gene YIL022W | yeast gene YJL034W | yeast gene YMR011W | yeast gene YPL036W
